Measured values from US10934297B2, “5-heteroaryl substituted indazole-3-carboxamides and preparation and use thereof” (Samumed, LLC, priority 2018, dated 2021).

Columns and labels:
[1] = tested on: Wnt activity (Sp5-Luc reporter in SW480 cells); experiment: Screening assay for Wnt activity: Sp5-Luc reporter gene assay in SW480 colon carcinoma cells; type: cell-based, human; details: Homo sapiens, 36 to 48 hours
From the text: The screening assay for Wnt activity is described as follows. Reporter cell lines can be generated by stably transducing cancer cell lines (e.g., colon cancer) or primary cells (e.g., IEC-6 intestinal cells) with a lentiviral construct that includes a Wnt-responsive promoter driving expression of the firefly luciferase gene.
SW480 colon carcinoma cells were transduced with a lentiviral vector expressing luciferase with a human Sp5 promoter consisting of a sequence of eight TCF/LEF binding sites. SW480 cells stably expressing the Sp5-Luc reporter gene and a hygromycin resistance gene were selected by treatment with 150 μg/mL of hygromycin for 7 days. These stably transduced SW480 cells were expanded in cell culture and used for all further screening activities. […] For Sp5-Luc reporter gene assays, the cells were plated at 4,000 cells/well in 384-well plates with a DMEM medium containing 1% fetal bovine serum, and 1% Penicillin-Streptomycin and incubated for 36 to 48 hours at 37° C. and 5% CO2. Following incubation, 15 μl of BriteLite Plus luminescence reagent (Perkin Elmer) was added to each well of the 384-well assay plates. The plates were placed on an orbital shaker for 2 min and then luminescence was quantified using the Envision (Perkin Elmer) plate reader. Readings were normalized to DMSO only treated cells, and normalized activities were utilized for EC50 calculations using the dose-response log (inhibitor) vs. response-variable slope (four parameters) nonlinear regression feature available in GraphPad Prism 5.0 (or Dotmatics).

DYRK1A kinase = DYRK1A kinase (Homo sapiens (Human), UniProt Q13627); experiment: DYRK1A kinase assay (Ser/Thr 18 peptide Z-lyte FRET); type: biochemical; details: read-out: EC50 (method: IC50)
Protocol: Representative compounds were screened using the assay procedure for DYRK1A kinase activity as described below.
This is a non-radioactive assay using fluorescence resonance energy transfer (FRET) between coumarin and fluorescein to detect kinase activity which is represented as a ratio of coumarin emission/fluorescein emission.
The mixture was allowed to incubate with the representative compounds for one hour at room temperature. All reactions were performed in duplicate. Unphosphorylated (“0% Control”) and phosphorylated (“100% control”) forms of Ser/Thr 18 served as control reactions. Additionally, an 11-point dose-response curve of Staurosporine (1 uM top) was run to serve as a positive compound control.
After incubation, Development Reagent A was diluted in Development Buffer then added to the reaction and allowed to further incubate for one hour at room temperature.

GSK3β kinase = GSK3β kinase (Homo sapiens (Human), UniProt P49841); experiment: GSK3β kinase assay (Ser/Thr 09 peptide Z-lyte FRET); type: biochemical; details: read-out: EC50 (method: IC50)
Protocol: Representative compounds were screened using the assay procedure for GSK3β kinase activity as described below.
This is a non-radioactive assay using fluorescence resonance energy transfer (FRET) between coumarin and fluorescein to detect kinase activity which is represented as ratio of coumarin emission/fluorescein emission.
The mixture is allowed to incubate with the representative compounds for one hour at room temperature. All reactions were performed in duplicate. Unphosphorylated (“0% Control”) and phosphorylated (“100% control”) forms of Ser/Thr 18 serve as control reactions.
After incubation, diluted Development Buffer is added to the reaction and allowed to further incubate for one hour at room temperature.
Dose-response curves are generated and inhibitory concentration (IC50) values are calculated using non-linear regression curve fit in the Dotmatics' Studies Software (Bishops Stortford, UK).

[2] = tested on: SW480 colon carcinoma cells; experiment: Cell viability assay (CellTiter-Glo) in SW480 colon carcinoma cells; type: cell-based, human; details: Homo sapiens, 96 h, four days
Protocol: Representative compounds were screened using the assay procedure to assess the effect on cell viability as described below.
SW480 colon carcinoma cells were transduced with a lentiviral vector expressing luciferase with a human Sp5 promoter consisting of a sequence of eight TCF/LEF binding sites. SW480 cells stably expressing the Sp5-Luc reporter gene and a hygromycin resistance gene were selected by treatment with 150 μg/mL of hygromycin for 7 days. These stably transduced SW480 cells were expanded in cell culture and used for all further screening activities.
For the Cell Viability Assays, the cells were plated at 2,000 cells/well in 384-well plates with a DMEM medium containing 1% fetal bovine serum, and 1% Penicillin-Streptomycin and incubated for […] at 37° C. and 5% CO2. Eight replicates of DMSO-treated cells served as controls and cells treated with compound were performed in duplicate.
After incubation, 10 μL of CellTiter-Glo (Promega) was added to each well allowed to incubate for approximately 12 minutes. This reagent “results in cell lysis and generation of a luminescent signal proportional to the amount of ATP present. The amount of ATP is directly proportional to the number of cells present in culture, in agreement with previous reports. The CellTiter-Glo® Assay generates a “glow-type” luminescent signal, produced by the luciferase reaction (Promega.com)”.

[3] = tested on: primary human fibroblasts derived from IPF patients (LL29 cells); experiment: Inhibition of the fibrotic process: αSMA staining in TGF-β1 treated LL29 fibroblasts; type: cell-based; details: Homo sapiens, Fibroblast, 96 h; LL29 cells, TGF-β1 20 ng/mL, 4 days, % αSMA positive cells
Protocol: Representative compounds were screened using primary human fibroblasts (derived from IPF patients) treated with TGF-β1 to determine their ability to inhibit the fibrotic process.
LL29 cells were plated at 1,500 cells/well in 70 μL/well F12 medium supplemented with 1% Fetal Bovine Serum. […] Wells treated with TGF-β1 and containing DMSO were used as positive control, and cells with only DMSO were negative control. […] Following incubation for 4 days, SYTOX green nucleic acid stain (Life Technologies [Thermo Fisher Scientific]) was added to the wells at a final concentration of 1 μM and incubated at room temperature for 30 min.

IL-6 = IL-6 inhibition in LPS-stimulated human peripheral blood mononuclear cells (HTRF); type: cell-based; details: Homo sapiens, PBMC; for EC50: huPBMCs, LPS 50 ng/mL, 22 hours, IL-6 HTRF
Protocol: Fresh Normal PB MNC (Catalog #PB001, AllCells, Alameda, Calif.) were shipped overnight at 4° C. and resuspended in Roswell Park Memorial Institute (RPMI) 1640 Medium, with GlutaMAX Supplement (Catalog #61870127, ThermoFisher Scientific, Waltham, Mass.) supplemented with 1% Penicillin-Streptomycin (Catalog #15140163. ThermoFisher Scientific, Waltham, Mass.) and 1% fetal bovine serum (FBS) (Catalog #16140089, ThermoFisher Scientific, Waltham, Mass.) assay media. Fresh normal human peripheral blood mononuclear cells (huPBMCs) were resuspended in 1% FBS-RPMI assay media with 1% Penicillin-Streptomycin 1% to a cell concentration of 1×10e6 cells/mL. […] 50 ng/mL of Lipopolysaccharides from Escherichia coli 0111:B4 (Catalog #L5293-2ML, Sigma-Aldrich, St. Louis, Mo.) was added after 2 hours and cells were incubated for another 22 hours at 37° C.-5% CO2. After 22 hour incubation, a mixture of anti-IL6 XL665 and anti-IL-6 Cryptate diluted in reconstitution buffer (Catalog #62IL6PEC, Cisbio Inc., Bedford, Mass.) was added to each well. Following incubation for 3 hours at room temperature, Homogeneous Time-Resolved Fluorescence (HTRF) was measured using the Envision (Perkin Elmer, Shelton, Conn.) at 665 nm and […]. The ratio of fluorescence at 665 nm to 620 nm was used as a readout for IL-6 quantification. All samples were processed in duplicate. Readings were normalized to DMSO treated cells and normalized activities were utilized for EC50 calculations.

Chain of GSK3β kinase (P49841 whole entry): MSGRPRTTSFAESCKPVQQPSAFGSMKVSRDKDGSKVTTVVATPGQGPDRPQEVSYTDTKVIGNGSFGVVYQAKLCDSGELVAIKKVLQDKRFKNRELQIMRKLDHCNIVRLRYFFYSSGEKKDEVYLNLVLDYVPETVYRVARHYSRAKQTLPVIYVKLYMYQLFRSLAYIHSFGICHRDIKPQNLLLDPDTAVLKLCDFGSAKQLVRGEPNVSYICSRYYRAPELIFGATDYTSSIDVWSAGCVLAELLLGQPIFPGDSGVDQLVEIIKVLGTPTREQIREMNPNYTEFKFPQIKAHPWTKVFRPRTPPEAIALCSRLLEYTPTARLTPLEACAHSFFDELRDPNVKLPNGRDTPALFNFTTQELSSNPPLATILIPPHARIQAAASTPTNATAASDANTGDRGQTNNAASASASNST

| SMILES | EC50 [1] | IC50 (DYRK1A kinase) | IC50 (GSK3β kinase) | EC50 [2] | EC50 [3] | EC50 (IL-6) | inhibition at 10 µM (IL-6; read-out: percent inhibition at 10 μM) |
| --- | --- | --- | --- | --- | --- | --- | --- |
| CC(C)CNC(=O)c1n[nH]c2ccc(-c3cn[nH]c3)cc12 [Compound 1, N-Isobutyl-5-(1H-pyrazol-4-yl)-1H-indazole-3-carboxamide] | 358 nM | 30 nM | 28 nM | 2580 nM | 160 nM | 1170 nM | – |
| CC(C)CNC(=O)c1n[nH]c2ccc(-c3cnn(C)c3)cc12 [Compound 2, N-Isobutyl-5-(1-methyl-1H-pyrazol-4-yl)-1H-indazole-3-carboxamide] | 819 nM | 25 nM | 11 nM | 5980 nM | 75 nM | 3010 nM | – |
| C[C@@H](NC(=O)c1n[nH]c2ccc(-c3cnn(C)c3)cc12)C(F)(F)F [Compound 3, (R)-5-(1-Methyl-1H-pyrazol-4-yl)-N-(1,1,1-trifluoropropan-2-yl)-1H-indazole-3-carboxamide] | > 10000 nM | 134 nM | 106 nM | 8950 nM | 2580 nM | 9070 nM | – |
| C[C@H](NC(=O)c1n[nH]c2ccc(-c3cnn(C)c3)cc12)C(F)(F)F [Compound 4, (S)-5-(1-Methyl-1H-pyrazol-4-yl)-N-(1,1,1-trifluoropropan-2-yl)-1H-indazole-3-carboxamide] | 3840 nM | 26 nM | 24 nM | 2550 nM | 171 nM | 2890 nM | – |
| Cn1cc(-c2ccc3[nH]nc(C(=O)NCCC(F)(F)F)c3c2)cn1 [Compound 5, 5-(1-Methyl-1H-pyrazol-4-yl)-N-(3,3,3-trifluoropropyl)-1H-indazole-3-carboxamide] | 655 nM | 25 nM | 8 nM | 2520 nM | 151 nM | 2940 nM | – |
| Cn1cc(-c2cc(F)c3[nH]nc(C(=O)NCCC(F)(F)F)c3c2)cn1 [Compound 6, 7-Fluoro-5-(1-methyl-1H-pyrazol-4-yl)-N-(3,3,3-trifluoropropyl)-1H-indazole-3-carboxamide] | 325 nM | 207 nM | 15 nM | 737 nM | 148 nM | > 10000 nM | 37.8% |
| CC(C)NC(=O)c1n[nH]c2ccc(-c3cnn(C4CCNCC4)c3)cc12 [Compound 7, N-Isopropyl-5-(1-(piperidin-4-yl)-1H-pyrazol-4-yl)-1H-indazole-3-carboxamide] | 2600 nM | 55 nM | 255 nM | 5600 nM | > 10000 nM | 2010 nM | – |
| Cn1cc(-c2ccc3[nH]nc(C(=O)NCC4CCC(F)(F)CC4)c3c2)cn1 [Compound 8, N-((4,4-Difluorocyclohexyl)methyl)-5-(1-methyl-1H-pyrazol-4-yl)-1H-indazole-3-carboxamide] | 565 nM | 31 nM | 22 nM | 511 nM | 146 nM | 3360 nM | – |
| Cn1cc(-c2ccc3[nH]nc(C(=O)N[C@@H]4CCCC[C@H]4F)c3c2)cn1 [Compound 9, N-((1R,2R)-2-Fluorocyclohexyl)-5-(1-methyl-1H-pyrazol-4-yl)-1H-indazole-3-carboxamide] | 1980 nM | 18 nM | 6 nM | 1330 nM | 324 nM | 1090 nM | – |
| Cn1cc(-c2cc3c(C(=O)N[C@@H]4CCCC[C@H]4F)n[nH]c3cc2F)cn1 [Compound 10, 6-Fluoro-N-((1R,2R)-2-fluorocyclohexyl)-5-(1-methyl-1H-pyrazol-4-yl)-1H-indazole-3-carboxamide] | 3400 nM | 16 nM | 9 nM | 1080 nM | 331 nM | 903 nM | – |
| Cn1cc(-c2cc(F)c3[nH]nc(C(=O)N[C@@H]4CCCC[C@H]4F)c3c2)cn1 [Compound 11, 7-Fluoro-N-((1R,2R)-2-fluorocyclohexyl)-5-(1-methyl-1H-pyrazol-4-yl)-1H-indazole-3-carboxamide] | > 10000 nM | 198 nM | 20 nM | 1940 nM | > 10000 nM | 3320 nM | – |
| O=C(N[C@@H]1CCCC[C@H]1F)c1n[nH]c2ccc(-c3cnn(C4CC4)c3)cc12 [Compound 12, 5-(1-Cyclopropyl-1H-pyrazol-4-yl)-N-((1R,2R)-2-fluorocyclohexyl)-1H-indazole-3-carboxamide] | 5470 nM | 171 nM | 38 nM | 2260 nM | 621 nM | 1160 nM | – |
| Cc1ncc(-c2ccc3[nH]nc(C(=O)N[C@@H]4CCCC[C@H]4F)c3c2)n1C [Compound 13, 5-(1,2-Dimethyl-1H-imidazol-5-yl)-N-((1R,2R)-2-fluorocyclohexyl)-1H-indazole-3-carboxamide] | > 10000 nM | 46 nM | 24 nM | > 10000 nM | 1390 nM | > 10000 nM | – |
| Cn1cc(-c2ccc3[nH]nc(C(=O)NC4CCC(F)(F)CC4)c3c2)cn1 [Compound 14, N-(4,4-Difluorocyclohexyl)-5-(1-methyl-1H-pyrazol-4-yl)-1H-indazole-3-carboxamide] | 903 nM | 18 nM | 23 nM | > 10000 nM | 114 nM | 3540 nM | – |
